Laboratory results: article PMC8269107, “Lipidation of Temporin-1CEb Derivatives as a Tool for Activity Improvement, Pros and Cons of the Approach” (International Journal of Molecular Sciences, 2021)
Values after ≈ are worked out from the molar mass of the structure shown. Where a SMILES comes first, the peptide text is derived from it. [ ]: non-standard residue; d: D form. The star is where a group is joined. Palmitoyl = CCCCCCCCCCCCCCCC(=O)*; Lauroyl = CCCCCCCCCCCC(=O)*; Pentanoyl = CCCCC(=O)*; AEEA = NCCOCCOCC(=O)O; Ahx = NCCCCCC(=O)O; βAla = NCCC(=O)O

Experiments:
[1] = test system: E. coli PCM 2057; assay: MIC, broth microdilution; assay type: cell-based, Escherichia coli; details: E. coli PCM 2057, 24 h
From the text: (§1) Escherichia coli (PCM 2057 = ATCC 25922), Staphylococcus aureus (PCM 2054 = ATCC 25923), Staphylococcus epidermidis (PCM 2118 = ATCC 14990), Bacillus subtilis (PCM 2224 = ATCC 9799), Bacillus cereus (PCM 482 = ATCC 10702) and Pseudomonas aeruginosa (PCM 499 = ATCC 10145) were obtained from the Polish Collection of Microorganisms. Fungi strains Candida albicans (CCM 8186 = CNTC 49/64), Candida glabrata (CCM 8270 = ATCC 90030), Candida parapsilosis (CCM 8260 = ATCC 22019) and Candida krusei (CCM 8271 = ATCC 6258) were acquired from the Czech Collection of Microorganisms. S. aureus USA300 (wild type strain), the reference strain of Klebsiella pneumoniae (ATCC 13883) and clinical isolates of Pseudomonas aeruginosa (PA1, PA2) collected from nonrelated patients admitted to the Stefan Zeromski Specialist Municipal Hospital in Krakow (Poland) were kindly provided by the research group of the Department of Microbiology, Faculty of Biochemistry, Biophysics and Biotechnology, Jagiellonian University, Krakow, Poland.
(§2) Luria-Bertani broth (LB) and Sabouraud Dextrose broth (SB) (Biocorp, Poland) were used for cultivation of bacteria and fungi strains, respectively. The antimicrobial activity of the peptides were analyzed through determination of MIC (minimal inhibitory concentration) parameters according to Clinical and Laboratory Standards (CLSI) guidelines developed for aerobic bacteria and yeasts, respectively. Mueller-Hinton broth (MHB) was used as the working medium for all bacterial strains, while in the case of fungi, RPMI-1640 (with L-glutamine, without sodium bicarbonate) growth medium buffered with MOPS (morpholinepropanesulfonic acid) and supplemented with 2% glucose was used. Inoculum was prepared from freshly grown cultures of microorganisms at their exponential phase of growth. […] Plates were then incubated for 24 h at 37 °C in the case of bacteria and at 35 °C in the case of fungi. After that time, absorbance was read at 590 nm with a Perkin Elmer plate reader. Cultures without peptide were treated as positive control, while uninoculated media were defined as negative control. All measurements were run at least in triplicate.

[2] = test system: C.krusei CCM 8271; assay: MIC, broth microdilution; assay type: cell-based, Candida krusei; details: C.krusei CCM 8271, 24 h
From the text: as §1, §2

[3] = test system: primary fibroblasts; assay: Cytotoxicity, MTT assay; assay type: cell-based, human; details: 24 h; for effect on cell viability (in words): fibroblasts, 1 to 50 µg/mL
Procedure: (§3) Human dermal fibroblasts were obtained as previously reported from biopsies of healthy human skin of three donors undergoing a surgery. All procedures were approved by the Ethics Committee of Medicinal University of Gdansk (NKEBN/483/2011 and NKBBN/745/2019-2020). Immortalized human HaCaT keratinocytes (DKFZ Heidelberg, Germany) were obtained commercially.
(§4) Both types of cell lines were grown in Dulbecco′s Modified Eagle′s Medium (DMEM) (Sigma-Aldrich, Germany), containing […] of glucose, […] of L- glutamine, sodium pyruvate and sodium bicarbonate. Additionally, the medium was supplemented with 10% FCS (fetal calf serum, Sigma-Aldrich, Germany), 100 U/mL of penicillin and 100 μg/mL of streptomycin (Sigma-Aldrich, Germany). The cells were grown in standard culture dishes (BD, USA) in a humidified atmosphere with 5% CO2 at […], and the medium was changed every 2 days.
(§5) The fibroblasts and keratinocytes were seeded at density of 5500 cells per well into 96-well plates suspended in a medium supplemented with 10% FCS. After 24 h from seeding, the media were exchanged with serum- and antibiotic-free DMEM and tested peptides, dissolved in sterile water, which were added, yielding a final concentration ranging from 1 to 50 μg/mL. The cells were then incubated for the next 24 h. At the end of the experiment, the cells were treated with 20 μL of MTT (5 mg/mL in PBS). After 3 h of incubation in the presence of MTT dye, the DMEM medium was discarded and replaced with 6 mM HCl in isopropanol. When the purple crystals of formazan were fully solubilized, absorbance at 570 nm was read.

[4] = test system: keratinocytes (HaCaT); assay: Cytotoxicity, MTT assay; assay type: cell-based, human; details: 24 h; for effect on cell viability (in words): keratinocytes, 1 to 50 µg/mL
Procedure: as §3, §4, §5

[5] = test system: S. aureus (PCM 2054) biofilm; assay: Biofilm inhibition assay (MTT); assay type: cell-based, Staphylococcus aureus; details: S. aureus biofilm development, 24 h post-inoculation
Procedure: In the case of bacteria, an overnight culture of S. aureus in Tryptic Soy Broth (TSB) supplemented with 2% glucose (TSB/+G) was used to prepare inoculum for the experiments. Briefly, 5 mL of 24 h culture was centrifuged at 5000× g, washed with sterile PBS and suspended in a fresh 2 × concentrated TSB/+G. In the case of yeasts, the overnight culture of C. albicans in Sabouraud dextrose broth (SB) was used for inoculum preparation. Similar to above, 5 mL of 24 h culture was centrifuged, washed with PBS and then suspended in sterile 2 × concentrated RPMI-1640 medium (with L-glutamine, without sodium bicarbonate) supplemented with 2% glucose (RPMI-1640/+G). In both cases, the cell concentration of the inoculum was about 1 × 10^7 cells per ml.
For the determination of the inhibitory concentration that reduced biofilm development by 50% (BIC50^, expressed in µg/mL), 100 µL inoculum in 2 × concentrated RPMI-1640/+G medium (in the case of C. albicans) or 2 x concentrated TSB/+G broth (in the case of S. aureus) was transferred to each well of 96-well plates containing 100 µL of serially diluted in water tested compounds. The final concentrations of the compounds were the same as those used in MIC determination studies. The 96-well plates were then incubated for 24 h at 37 °C and 35 °C in the case of bacteria and fungi, respectively. Viability of the microorganisms in the presence of the tested compounds was analyzed by means of MTT assay.
The reduction in biofilm viability was analyzed by means of MTT assay. Briefly, 20 μL of MTT solution (5 mg/mL in PBS) was added to prewashed wells with exchanged medium (180 μL of fresh medium) wells containing bacterial/yeast biofilms. Plates were then incubated in the dark for the next 3 h at 37 °C. After that time, the medium was replaced with 6 mM HCl in isopropanol and, when the reduced MTT was fully dissolved, the plates were read at 570 nm. Activity against fully developed 24 h old biofilm was described as biofilm eradication concentration (BEC50 expressed in µg/mL), which corresponded to the concentration of the compound able to reduce 50% of biofilm viability compared with the growth control.

[6] = test system: S. epidermidis PCM 2118; assay: MIC, broth microdilution; assay type: cell-based, Staphylococcus epidermidis; details: S. epidermidis PCM 2118, 24 h
From the text: as §1, §2

[7] = test system: C.glabrata CCM 8270; assay: MIC, broth microdilution; assay type: cell-based, Candida glabrata; details: C.glabrata CCM 8270, 24 h
From the text: as §1, §2

[8] = test system: C.parapsilosis CCM 8260; assay: MIC, broth microdilution; assay type: cell-based, Candida parapsilosis; details: C.parapsilosis CCM 8260, 24 h
From the text: as §1, §2

Compound	MIC100 [1] [mg/L]	MIC100 [2] [mg/L]	effect on cell viability (in words) ([3]; MTT)	IC50 ([3]; primary Fibroblasts, MTT) [mg/L]	IC50 ([4]; Keratinocytes (HaCaT), MTT) [mg/L]	effect on cell viability (in words) ([4]; MTT)	BIC50 [5] [µg/mL]	MIC100 [6] [mg/L]	MIC100 [7] [mg/L]	MIC100 [8] [mg/L]	IC50 [3] [mg/L]	IC50 [4] [mg/L]
CC[C@H](C)[C@H](NC(=O)CCCCCN)C(=O)N[C@@H](CCCCN)C(=O)N[C@@H](CCCCN)C(=O)N[C@H](C(=O)N[C@@H](CC(C)C)C(=O)N[C@@H](CO)C(=O)N[C@@H](CCCCN)C(=O)N[C@H](C(=O)N[C@@H](CCCCN)C(=O)N[C@@H](CCCCN)C(=O)N[C@@H](CC(C)C)C(=O)N[C@@H](CC(C)C)C(N)=O)[C@@H](C)CC)[C@@H](C)CC [AHX-DK5] (H-[Ahx]IKKILSKIKKLL-NH2)	12.5 (≈ 8.13 µM)	50 (≈ 32.5 µM)	moderately toxic	50 (≈ 32.5 µM)	>50	moderately toxic	6.25	0.78 (≈ 0.507 µM)	12.5 (≈ 8.13 µM)	12.5 (≈ 8.13 µM)	–	–
CCCCCCCCCCCC(=O)NCCC(=O)N[C@@H](Cc1c[nH]cn1)C(=O)NCCOCCOCC(=O)N[C@H](C(=O)N[C@@H](CCCCN)C(=O)N[C@@H](CCCCN)C(=O)N[C@H](C(=O)N[C@@H](CC(C)C)C(=O)N[C@@H](CO)C(=O)N[C@@H](CCCCN)C(=O)N[C@H](C(=O)N[C@@H](CCCCN)C(=O)N[C@@H](CCCCN)C(=O)N[C@@H](CC(C)C)C(=O)N[C@@H](CC(C)C)C(N)=O)[C@@H](C)CC)[C@@H](C)CC)[C@@H](C)CC [C12-CAR-PEG-DK5] ({Lauroyl-βAla}-H[AEEA]IKKILSKIKKLL-NH2)	3.13 (≈ 1.6 µM)	12.5 (≈ 6.38 µM)	–	12.5 (≈ 6.38 µM)	10 (≈ 5.1 µM)	–	–	0.78 (≈ 0.398 µM)	12.5 (≈ 6.38 µM)	3.13 (≈ 1.6 µM)	–	–
CC[C@H](C)[C@H](NC(=O)COCCOCCNC(=O)[C@H](Cc1c[nH]cn1)NC(=O)CCN)C(=O)N[C@@H](CCCCN)C(=O)N[C@@H](CCCCN)C(=O)N[C@H](C(=O)N[C@@H](CC(C)C)C(=O)N[C@@H](CO)C(=O)N[C@@H](CCCCN)C(=O)N[C@H](C(=O)N[C@@H](CCCCN)C(=O)N[C@@H](CCCCN)C(=O)N[C@@H](CC(C)C)C(=O)N[C@@H](CC(C)C)C(N)=O)[C@@H](C)CC)[C@@H](C)CC [CAR-PEG-DK5] (H-[βAla]H[AEEA]IKKILSKIKKLL-NH2; N-terminus and C-terminus assumed)	>50	3.9 (≈ 2.19 µM)	–	–	–	–	>50	3.9 (≈ 2.19 µM)	62.5 (≈ 35.2 µM)	31.3 (≈ 17.6 µM)	35 (≈ 19.7 µM)	>50
CCCCC(=O)N[C@H](C(=O)N[C@@H](CCCCN)C(=O)N[C@@H](CCCCN)C(=O)N[C@H](C(=O)N[C@@H](CC(C)C)C(=O)N[C@@H](CO)C(=O)N[C@@H](CCCCN)C(=O)N[C@H](C(=O)N[C@@H](CCCCN)C(=O)N[C@@H](CCCCN)C(=O)N[C@@H](CC(C)C)C(=O)N[C@@H](CC(C)C)C(N)=O)[C@@H](C)CC)[C@@H](C)CC)[C@@H](C)CC [Compound C5-DK5] (Pentanoyl-IKKILSKIKKLL-NH2)	3.13 (≈ 2.08 µM)	25 (≈ 16.6 µM)	moderately toxic	20 (≈ 13.3 µM)	35 (≈ 23.2 µM)	moderately toxic	6.25	0.78 (≈ 0.517 µM)	6.25 (≈ 4.14 µM)	3.13 (≈ 2.08 µM)	–	–
CC[C@H](C)[C@H](NC(=O)COCCOCCNC(=O)[C@H](Cc1c[nH]cn1)NC(=O)CCNC(=O)CCCCCN)C(=O)N[C@@H](CCCCN)C(=O)N[C@@H](CCCCN)C(=O)N[C@H](C(=O)N[C@@H](CC(C)C)C(=O)N[C@@H](CO)C(=O)N[C@@H](CCCCN)C(=O)N[C@H](C(=O)N[C@@H](CCCCN)C(=O)N[C@@H](CCCCN)C(=O)N[C@@H](CC(C)C)C(=O)N[C@@H](CC(C)C)C(N)=O)[C@@H](C)CC)[C@@H](C)CC [AHX-CAR-PEG-DK5] (H-[Ahx][βAla]H[AEEA]IKKILSKIKKLL-NH2)	>50	>50	neutral or even pro-proliferative	>50	>50	neutral or even pro-proliferative	>50	6.25 (≈ 3.31 µM)	>50	50 (≈ 26.4 µM)	–	–
CCCCCCCCCCCCCCCC(=O)N[C@H](C(=O)N[C@@H](CCCCN)C(=O)N[C@@H](CCCCN)C(=O)N[C@H](C(=O)N[C@@H](CC(C)C)C(=O)N[C@@H](CO)C(=O)N[C@@H](CCCCN)C(=O)N[C@H](C(=O)N[C@@H](CCCCN)C(=O)N[C@@H](CCCCN)C(=O)N[C@@H](CC(C)C)C(=O)N[C@@H](CC(C)C)C(N)=O)[C@@H](C)CC)[C@@H](C)CC)[C@@H](C)CC [Compound C16-DK5] (Palmitoyl-IKKILSKIKKLL-NH2)	>50	6.25 (≈ 3.76 µM)	–	7 (≈ 4.21 µM)	5 (≈ 3.01 µM)	–	6.25	25 (≈ 15 µM)	>50	–	–	–
